Patent publication US20250108019A1, “USE OF LACTIC ACID IN PRODUCT FOR REGULATING AND PROMOTING TISSUE GROWTH” (CHANGCHUN SINOBIOMATERIALS CO., LTD., priority 2022, published 2025)

What was measured:
[1] = test system: cartilage—ear cartilage tissue; assay: Ear cartilage diameter after local injection in mice (Sirius red, 100× optical microscope); assay type: in vivo; conditions: 50 mmol/L; for Ear cartilage tissue measured value, mean: 0.1 ml injection daily, experimental side
Excerpt: (§1) Experimental animals: Male experimental mice weighing 23±4 g were selected and divided into several groups, with 10 mice in each group. Experimental site: Different tissue sites of mice were selected for the test, specifically muscle—rectus femoris, tendon—Achilles tendon, cartilage—ear cartilage tissue. Experimental group: ? 25 mmol/L aqueous lactic acid solution • ? 50 mmol/L aqueous lactic acid solution • ? 75 mmol/L aqueous lactic acid solution and • ? 0.9% sodium chloride injection Experimental procedure: The right side of the experimental mouse was the experimental side (injected with lactic acid solutions at different concentrations), and the left side was the control side (injected with 0.9% sodium chloride injection). The experiment started with a single injection of 0.1 ml of the corresponding experimental solution at the experimental side every day from 1 to 7 days. […] The experimental and control sides of each mouse were selected for fixation and pathological histological examination. • 1) The tissue to be observed was cut and fixed, and then stained with Sirius red to observe the effects of the injection solution on the tissues at various sites. • 2) The experimental side and the control side were randomly selected for sectioning, the diameter of each tissue was measured under a 100× optical microscope, and the average value of the experimental side and the control side was calculated using the following formula: [formula] The diameters on both sides were compared, and the effects of the lactic acid solution on each tissue site were analyzed using the SSPS 21 calculation results.

muscle—rectus femoris = assay: Muscle tissue diameter after local injection in mice (Sirius red, 100× optical microscope); assay type: in vivo; conditions: for Muscle tissue measured value, mean: 0.1 ml injection daily, experimental side
Excerpt: as §1

tendon—Achilles tendon = assay: Tendon diameter after local injection in mice (Sirius red, 100× optical microscope); assay type: in vivo; conditions: for Tendon measured value, mean: 0.1 ml injection daily, experimental side
Excerpt: as §1

sciatic nerve [2] = assay: Toe spread score after sciatic nerve clamp injury; assay type: in vivo, mice; conditions: 0.1 ml of 50 mmol/L intraperitoneal
Experimental: Experimental animals: Male experimental mice weighing 30˜35 g were selected and divided into 3 groups, with 26 mice in each group. Experimental site: The sciatic nerve of mice was selected. Experimental groups: ? model group (injury caused by sciatic nerve clamp injury); ? treatment group (after injuried by sciatic nerve clamp, 0.1 ml of 50 mmol/L aqueous lactic acid solution was given by intraperitoneal injection each time); and ? sham group (only the sciatic nerve was freed). Experimental procedure: The treatment group was given medication for 14 consecutive days, and the model group and sham group were given an equal amount of 0.9% sodium chloride injection. […] The evaluation grades are classified as scores 0˜3, with no spread being score 0 and full spread being score 3.

sciatic nerve [3] = assay: Sciatic function index (SFI) after sciatic nerve clamp injury; assay type: in vivo, mice; conditions: 0.1 ml of 50 mmol/L intraperitoneal
Experimental: Experimental animals: Male experimental mice weighing 30˜35 g were selected and divided into 3 groups, with 26 mice in each group. Experimental site: The sciatic nerve of mice was selected. Experimental groups: ? model group (injury caused by sciatic nerve clamp injury); ? treatment group (after injuried by sciatic nerve clamp, 0.1 ml of 50 mmol/L aqueous lactic acid solution was given by intraperitoneal injection each time); and ? sham group (only the sciatic nerve was freed). Experimental procedure: The treatment group was given medication for 14 consecutive days, and the model group and sham group were given an equal amount of 0.9% sodium chloride injection. • (1) The functional recovery of the sciatic nerve of mice after injury was tracked and evaluated by using the sciatic function index (SFI) at 7 and 14 days after surgery. […] The footprints of the left injured side (E) and the right normal side (N) of the experimental mice were measured. The footprint length (PL), the distance from the first toe to the fifth toe (TS), and the distance from the second toe to the fourth toe (IT) were recorded and put into the formula for calculation. […] The formula is as follows: SFI=109.5(ETS−NTS)/NTS−38.3(EPL−NPL)/NPL+13.3(EIT−NIT)/NIT−8.8 • (2) The degree of toe spread on the injured side was recorded at 3, 7, and 14 days after surgery. […]

For CC(O)C(=O)O (centres unmarked) [lactic acid], the “Ear cartilage tissue measured value, mean” value (shortened to “Ear cartilage tissue”) ([1]; 3 days) was 158.8 μm, the “Ear cartilage tissue” value ([1]; 7 days) was 237.3 μm and the “Ear cartilage tissue” value ([1]; 14 days) was 170.3 μm. For the same compound, the “Ear cartilage tissue” value ([1]; 21 days, * P<0.05 vs control side) was 253.5* μm, the “Cross-section of the ear cartilage on the experimental side, histological observation” value ([1]; Day 21, FIG. 6) was “significantly thickened” and the “Muscle tissue measured value, mean” value (muscle—rectus femoris; 25 mmol/L, 3 days) was 64.13 μm. The “Muscle tissue measured value, mean” value (muscle—rectus femoris; 25 mmol/L, 7 days) was 79.66 μm, the “Muscle tissue measured value, mean” value (muscle—rectus femoris; 25 mmol/L, 14 days, * P<0.05 vs control side) was 123.8* μm and the “Muscle tissue measured value, mean” value (muscle—rectus femoris; 25 mmol/L, 21 days) was 112.1 μm. For the same compound, the “Muscle tissue on the experimental side, histological observation” value (muscle—rectus femoris; 25 mmol/L, 14 days, FIG. 1) was “significantly thickened”, the “Muscle tissue measured value, mean” value (muscle—rectus femoris; 50 mmol/L, 3 days) was 73.49 μm and the “Muscle tissue measured value, mean” value (muscle—rectus femoris; 50 mmol/L, 7 days, ** P<0.01 vs control side) was 69.14** μm. For the same compound, the “Muscle tissue measured value, mean” value (muscle—rectus femoris; 50 mmol/L, 14 days, * P<0.05 vs control side) was 119.5* μm, the “Muscle tissue measured value, mean” value (muscle—rectus femoris; 50 mmol/L, 21 days) was 111.9 μm and the “Muscle tissue on the experimental side, histological observation” value (muscle—rectus femoris; 50 mmol/L, 7 days, FIG. 2) was “significantly thickened”. The “Tendon measured value, mean” value (tendon—Achilles tendon; 25 mmol/L, 3 days, * P<0.05 vs control) was 853.9* μm, the “Tendon measured value, mean” value (tendon—Achilles tendon; 25 mmol/L, 14 days) was 877.1 μm and the “Tendon measured value, mean” value (tendon—Achilles tendon; 25 mmol/L, 21 days) was 438.3 μm. The “Achilles tendon on the experimental side, histological observation” value (from here on “Achilles tendon … histological observation”) (tendon—Achilles tendon; 25 mmol/L, 3 days after injection, FIG. 3) was “significantly thickened”, the “Tendon measured value, mean” value (tendon—Achilles tendon; 50 mmol/L, 3 days) was 484.6 μm and the “Tendon measured value, mean” value (tendon—Achilles tendon; 50 mmol/L, 7 days) was 547.8 μm. The “Tendon measured value, mean” value (tendon—Achilles tendon; 50 mmol/L, 14 days, * P<0.05 vs control) was 769.5* μm, the “Tendon measured value, mean” value (tendon—Achilles tendon; 50 mmol/L, 21 days) was 543.9 μm and the “Achilles tendon … histological observation” value (tendon—Achilles tendon; 50 mmol/L, Day 14, FIG. 4) was “significantly thickened”. For the same compound, the “Tendon measured value, mean” value (tendon—Achilles tendon; 75 mmol/L, 3 days, * P<0.05 vs control) was 970.9* μm, the “Tendon measured value, mean” value (tendon—Achilles tendon; 75 mmol/L, 7 days, * P<0.05 vs control) was 832.2* μm and the “Tendon measured value, mean” value (tendon—Achilles tendon; 75 mmol/L, 14 days) was 578.2 μm. For the same compound, the “Tendon measured value, mean” value (tendon—Achilles tendon; 75 mmol/L, 21 days, * P<0.05 vs control) was 970.1* μm, the “Achilles tendon … histological observation” value (tendon—Achilles tendon; 75 mmol/L, Day 3, 7, and 21, FIG. 5) was “significantly thickened” and the “Toe spread score (0~3)” value (sciatic nerve [2]; 3 days after surgery) was 0 ± 0.4. For the same compound, the “Toe spread score (0~3)” value (sciatic nerve [2]; 7 days after surgery) was 0.9 ± 0.6, the “Toe spread score (0~3)” value (sciatic nerve [2]; 10 days after surgery) was 2 ± 0.3 and the “Toe spread score (0~3)” value (sciatic nerve [2]; 14 days after surgery) was 2.5 ± 0.5. The SFI score (sciatic nerve [3]; 7 days after surgery, FIG. 7) was “significantly lower than those in the sham group” and the SFI score (sciatic nerve [3]; 14 days after surgery, P<0.01, FIG. 7) was “significantly increased”.
